Assay results reported in PubChem BioAssay (NCI).
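Growth conditions: 96-well plates. Treatment: test compound, 48 hours, 5 concentrations. Analysis: linear interpolation between bracketing concentrations; unreached endpoints set to highest concentration. GI50 marks 50% less growth. The concentration for full growth arrest is given as TGI.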

What was measured:
Test in all cases: NCI anticancer screen, dose series, 48 h
[1] = test system: SF-268 CNS
[2] = test system: OVCAR-5 ovarian
[3] = test system: SF-295 CNS
[4] = test system: MOLT-4 leukemia
[5] = test system: UO-31 renal
[6] = test system: MCF7 breast
[7] = test system: SK-OV-3 ovarian
[8] = test system: RPMI-8226 leukemia
[9] = test system: A498 renal
[10] = test system: NCI/ADR-RES ovarian
[11] = test system: KM12 colon
[12] = test system: TK-10 renal
[13] = test system: ACHN renal
[14] = test system: SNB-19 CNS
[15] = test system: CAKI-1 renal
[16] = test system: PC-3 prostate
[17] = test system: MDA-MB-231 breast
[18] = test system: OVCAR-8 ovarian
[19] = test system: HCT-15 colon
[20] = test system: RXF 393 renal
[21] = test system: NCI-H226 lung
[22] = test system: UACC-62 melanoma
[23] = test system: SR leukemia
[24] = test system: HS 578T breast
[25] = test system: T-47D breast
[26] = test system: BT-549 breast
[27] = test system: HCT-116 colon
[28] = test system: HOP-92 NSCLC
[29] = test system: U251 CNS
[30] = test system: SF-539 CNS
[31] = test system: HOP-62 NSCLC
[32] = test system: HCC-2998 colon
[33] = test system: OVCAR-4 ovarian
[34] = test system: NCI-H522 lung
[35] = test system: NCI-H460 lung
[36] = test system: IGROV1 ovarian
[37] = test system: MALME-3M melanoma
[38] = test system: MDA-MB-468 breast
[39] = test system: SK-MEL-28 melanoma
[40] = test system: 786-0 renal
[41] = test system: CCRF-CEM leukemia
[42] = test system: DU-145 prostate
[43] = test system: UACC-257 melanoma
[44] = test system: M14 melanoma
[45] = test system: SK-MEL-5 melanoma
[46] = test system: HL-60(TB) leukemia
[47] = test system: NCI-H23 lung
[48] = test system: SN12C renal
[49] = test system: LOX IMVI melanoma
[50] = test system: K-562 leukemia
[51] = test system: COLO 205 colon
[52] = test system: HT29 colon
[53] = test system: SW-620 colon
[54] = test system: OVCAR-3 ovarian
[55] = test system: EKVX NSCLC
[56] = test system: A549 NSCLC
[57] = test system: MDA-MB-435

## O=C(Nc1ccc(C(F)(F)F)cc1)Nc1ccc2oc(=O)ccc2c1
[1]
  GI50: 18.6 µM
  TGI: > 100 µM
[2]
  GI50: > 100 µM
  TGI: > 100 µM
[3]
  GI50: 2.63 µM
  TGI: > 100 µM
[4]
  GI50: 2.86 µM
  TGI: > 100 µM
[5]
  GI50: 2.14 µM
  TGI: > 100 µM
[6]
  GI50: 2.48 µM
  TGI: > 100 µM
[7]
  GI50: 91.4 µM
  TGI: > 100 µM
[8]
  GI50: 2.04 µM
  TGI: 5.87 µM
[9]
  GI50: > 100 µM
  TGI: > 100 µM
[10]
  GI50: 3.86 µM
  TGI: > 100 µM
[11]
  GI50: 3.51 µM
  TGI: > 100 µM
[12]
  GI50: > 100 µM
  TGI: > 100 µM
[13]
  GI50: 2.7 µM
  TGI: > 100 µM
[14]
  GI50: 4.37 µM
  TGI: > 100 µM
[15]
  GI50: 2.58 µM
  TGI: > 100 µM
[16]
  GI50: 2.34 µM
  TGI: > 100 µM
[17]
  GI50: 11.7 µM
  TGI: > 100 µM
[18]
  GI50: 5.93 µM
  TGI: > 100 µM
[19]
  GI50: 2.91 µM
  TGI: > 100 µM
[20]
  GI50: 18.2 µM
  TGI: > 100 µM
[21]
  GI50: 3.67 µM
  TGI: > 100 µM
[22]
  GI50: 5.76 µM
  TGI: > 100 µM
[23]
  GI50: 3.86 µM
  TGI: > 100 µM
[24]
  GI50: 16.7 µM
  TGI: > 100 µM
[25]
  GI50: 2.85 µM
  TGI: > 100 µM
[26]
  GI50: 3.4 µM
  TGI: > 100 µM
[27]
  GI50: 2.95 µM
  TGI: > 100 µM
[28]
  GI50: 1.49 µM
  TGI: 5.73 µM
[29]
  GI50: 4.34 µM
  TGI: > 100 µM
[30]
  GI50: 5.81 µM
  TGI: > 100 µM
[31]
  GI50: 9.77 µM
  TGI: > 100 µM
[32]
  GI50: 3.51 µM
  TGI: > 100 µM
[33]
  GI50: 5.4 µM
  TGI: > 100 µM
[34]
  GI50: 2.8 µM
  TGI: > 100 µM
[35]
  GI50: 4.17 µM
  TGI: > 100 µM
[36]
  GI50: 3.55 µM
  TGI: > 100 µM
[37]
  GI50: 4.87 µM
  TGI: > 100 µM
[38]
  GI50: 2.97 µM
  TGI: > 100 µM
[39]
  GI50: > 100 µM
  TGI: > 100 µM
[40]
  GI50: 19.3 µM
  TGI: > 100 µM
[41]
  GI50: 3.2 µM
  TGI: > 100 µM

## N#CC1=C(c2ccco2)Nc2c(c(-c3ccccc3)nn2-c2ccccc2)C12C(=O)Nc1ccc(Cl)cc12 (stereo not drawn)
[1]
  GI50: 17.8 µM
  TGI: 90.1 µM
[2]
  GI50: 23.8 µM
  TGI: > 100 µM
[3]
  GI50: 16.9 µM
  TGI: 56.3 µM
[42]
  GI50: 19.4 µM
  TGI: 43.9 µM
[4]
  GI50: 6.05 µM
  TGI: 91.2 µM
[6]
  GI50: 15.7 µM
  TGI: 49.7 µM
[43]
  GI50: 16.6 µM
  TGI: 41.4 µM
[7]
  GI50: 15.8 µM
  TGI: 33.9 µM
[8]
  GI50: 18.7 µM
  TGI: > 100 µM
[9]
  GI50: 14.5 µM
  TGI: 30.9 µM
[10]
  GI50: 14.8 µM
  TGI: 30 µM
[11]
  GI50: 49.5 µM
  TGI: > 100 µM
[12]
  GI50: 15 µM
  TGI: 30.6 µM
[44]
  GI50: 15 µM
  TGI: 32.7 µM
[45]
  GI50: 18 µM
  TGI: 41.8 µM
[13]
  GI50: 18.1 µM
  TGI: 61 µM
[14]
  GI50: 17.4 µM
  TGI: 46 µM
[46]
  GI50: 15 µM
  TGI: > 100 µM
[47]
  GI50: 15.5 µM
  TGI: 32.4 µM
[48]
  GI50: 17 µM
  TGI: 36.7 µM
[15]
  GI50: 29.5 µM
  TGI: > 100 µM
[16]
  GI50: 12 µM
  TGI: 28 µM
[49]
  GI50: 19.2 µM
  TGI: 47.1 µM
[18]
  GI50: 15.7 µM
  TGI: 30.7 µM
[19]
  GI50: 19.6 µM
  TGI: > 100 µM
[20]
  GI50: 13.2 µM
  TGI: 29.9 µM
[21]
  GI50: 17.5 µM
  TGI: 50.2 µM
[22]
  GI50: 11.4 µM
  TGI: 28.2 µM
[23]
  GI50: 23.3 µM
  TGI: > 100 µM
[50]
  GI50: 16.6 µM
  TGI: > 100 µM
[24]
  GI50: 12.6 µM
  TGI: 40.9 µM
[25]
  GI50: 19.5 µM
  TGI: > 100 µM
[51]
  GI50: 14.7 µM
  TGI: 29.7 µM
[52]
  GI50: 14.6 µM
  TGI: 30.2 µM
[26]
  GI50: 12.2 µM
  TGI: 28.2 µM
[27]
  GI50: 13.1 µM
  TGI: 26 µM
[53]
  GI50: 30.3 µM
  TGI: > 100 µM
[28]
  GI50: 12.8 µM
  TGI: 28.5 µM
[29]
  GI50: 13.3 µM
  TGI: 29.2 µM
[30]
  GI50: 17.9 µM
  TGI: 40.6 µM
[54]
  GI50: 20.4 µM
  TGI: 61 µM
[31]
  GI50: 14.8 µM
  TGI: 28.9 µM
[32]
  GI50: 19.2 µM
  TGI: 58.9 µM
[33]
  GI50: 15.4 µM
  TGI: 33.3 µM
[55]
  GI50: 16.5 µM
  TGI: 66 µM
[34]
  GI50: 14.5 µM
  TGI: 38.8 µM
[56]
  GI50: 11.6 µM
  TGI: 25.1 µM
[35]
  GI50: 14.1 µM
  TGI: 31.8 µM
[36]
  GI50: 16.3 µM
  TGI: 38.4 µM
[37]
  GI50: 14.7 µM
  TGI: 29.8 µM
[38]
  GI50: 19 µM
  TGI: 64.7 µM
[39]
  GI50: 15.5 µM
  TGI: 33 µM
[57]
  GI50: 34.8 µM
  TGI: > 100 µM
[40]
  GI50: 16.2 µM
  TGI: 56 µM
[41]
  GI50: 49.7 µM
  TGI: > 100 µM

## Nc1nc(N)c2c(n1)CCC(S(=O)(=O)c1ccc3ccccc3c1)C2 (stereo not drawn)
[38]
  GI50: 2.25 µM
  TGI: 33 µM

## O=C(/C=C/C=C/c1ccc2c(c1)OCO2)N/N=C\c1ccc(O)cc1O
[38]
  GI50: 1.66 µM
  TGI: 5.73 µM

## COc1c(B(O)O)cccc1-c1nc2c(F)cc3n[nH]c(C)c3c2c2c1CCCC2
[38]
  GI50: 0.994 µM
  TGI: 4.12 µM
